Entries after “also recorded” stand apart in the source; their conditions may differ. Where two headings read alike, the source gives them in different places.
What was measured:
CYP3A4 = CYP3A4 (Homo sapiens, UniProt P08684); format: in vivo; settings: for Change in t1/2 when administered with lenvatinib: D1 and D14 vs D −3
[1] = format: in vivo, human; settings: for tmax: median (minimum, maximum); for Vd/F: Vz/F
[2] = D1 vs D −3 (single dose of lenvatinib 24 mg)
[3] = D14 vs D −3 (lenvatinib 24 mg at steady state)
[4] = D −3, patients of comparison D1 vs D −3
[5] = D −3, patients of comparison D14 vs D −3
[6] = Day 1, with single dose of lenvatinib, mean (SD)
[7] = Day 14, with lenvatinib at steady state, mean (SD)
[8] = Day −3, midazolam alone, mean (SD)

Sequence of CYP3A4 (P08684 whole entry): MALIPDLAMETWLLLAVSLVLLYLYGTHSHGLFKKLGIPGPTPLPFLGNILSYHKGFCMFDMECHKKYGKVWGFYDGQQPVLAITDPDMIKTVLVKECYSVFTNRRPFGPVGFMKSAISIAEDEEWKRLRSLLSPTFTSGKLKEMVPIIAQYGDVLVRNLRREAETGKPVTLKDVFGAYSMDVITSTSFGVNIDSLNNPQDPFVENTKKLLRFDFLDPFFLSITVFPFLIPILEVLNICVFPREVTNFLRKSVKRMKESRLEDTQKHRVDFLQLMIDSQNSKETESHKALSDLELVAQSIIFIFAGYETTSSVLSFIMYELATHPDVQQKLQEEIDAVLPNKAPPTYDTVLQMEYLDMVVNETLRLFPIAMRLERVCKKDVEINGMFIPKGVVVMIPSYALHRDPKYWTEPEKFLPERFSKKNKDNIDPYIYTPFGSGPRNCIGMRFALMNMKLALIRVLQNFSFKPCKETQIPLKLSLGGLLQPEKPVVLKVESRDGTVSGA

OCc1ncc2n1-c1ccc(Cl)cc1C(c1ccccc1F)=NC2 [1′-OH midazolam, 1′-hydroxy-midazolam]
Change in t1/2 when administered with lenvatinib (CYP3A4): no statistically significant change
Difference in median tmax (CYP3A4; D1 vs D −3): 0.00 h
AUC0–24 geometric mean ratio (test/reference) (CYP3A4; [2]): 1.120
Cmax geometric mean ratio (test/reference) (CYP3A4; [2]): 1.055
Difference in median tmax (CYP3A4; D14 vs D −3): 0.00 h
AUC0–24 geometric mean ratio (test/reference) (CYP3A4; [3]): 1.199
Cmax geometric mean ratio (test/reference) (CYP3A4; [3]): 0.940
Plasma concentration, mean (standard deviation) ([1]; 0.5 h, D1 1 dose of lenvatinib and midazolam): 10.433 (11.8436) ng/mL
Plasma concentration, mean (standard deviation) ([1]; 0.5 h, D14 multiple doses of lenvatinib and 1 dose of midazolam): 8.048 (12.1629) ng/mL
Plasma concentration, mean (standard deviation) ([1]; 0.5 h, D −3 midazolam only): 7.929 (8.1952) ng/mL
Plasma concentration, mean (standard deviation) ([1]; 1 h, D1 1 dose of lenvatinib and midazolam): 9.230 (9.8222) ng/mL
Plasma concentration, mean (standard deviation) ([1]; 1 h, D14 multiple doses of lenvatinib and 1 dose of midazolam): 8.884 (8.9281) ng/mL
Plasma concentration, mean (standard deviation) ([1]; 1 h, D −3 midazolam only): 8.259 (6.9675) ng/mL
Plasma concentration, mean (standard deviation) ([1]; 1.5 h, D1 1 dose of lenvatinib and midazolam): 8.265 (9.0440) ng/mL
Plasma concentration, mean (standard deviation) ([1]; 1.5 h, D14 multiple doses of lenvatinib and 1 dose of midazolam): 7.314 (6.7286) ng/mL
Plasma concentration, mean (standard deviation) ([1]; 1.5 h, D −3 midazolam only): 7.307 (5.9056) ng/mL
Plasma concentration, mean (standard deviation) ([1]; 2 h, D1 1 dose of lenvatinib and midazolam): 6.921 (8.0144) ng/mL
Plasma concentration, mean (standard deviation) ([1]; 2 h, D14 multiple doses of lenvatinib and 1 dose of midazolam): 5.767 (5.0953) ng/mL
Plasma concentration, mean (standard deviation) ([1]; 2 h, D −3 midazolam only): 5.736 (4.1774) ng/mL
Plasma concentration, mean (standard deviation) ([1]; 3 h, D1 1 dose of lenvatinib and midazolam): 4.888 (7.3050) ng/mL
Plasma concentration, mean (standard deviation) ([1]; 3 h, D14 multiple doses of lenvatinib and 1 dose of midazolam): 4.027 (3.2372) ng/mL
Plasma concentration, mean (standard deviation) ([1]; 3 h, D −3 midazolam only): 3.698 (2.9719) ng/mL
Plasma concentration, mean (standard deviation) ([1]; 4 h, D1 1 dose of lenvatinib and midazolam): 3.395 (5.2011) ng/mL
Plasma concentration, mean (standard deviation) ([1]; 4 h, D14 multiple doses of lenvatinib and 1 dose of midazolam): 2.919 (2.1611) ng/mL
Plasma concentration, mean (standard deviation) ([1]; 4 h, D −3 midazolam only): 2.359 (1.9899) ng/mL
Plasma concentration, mean (standard deviation) ([1]; 6 h, D1 1 dose of lenvatinib and midazolam): 2.059 (2.3381) ng/mL
Plasma concentration, mean (standard deviation) ([1]; 6 h, D14 multiple doses of lenvatinib and 1 dose of midazolam): 1.773 (1.4213) ng/mL
Plasma concentration, mean (standard deviation) ([1]; 6 h, D −3 midazolam only): 1.447 (1.4379) ng/mL
Plasma concentration, mean (standard deviation) ([1]; 8 h, D1 1 dose of lenvatinib and midazolam): 1.132 (1.0593) ng/mL
Plasma concentration, mean (standard deviation) ([1]; 8 h, D14 multiple doses of lenvatinib and 1 dose of midazolam): 1.372 (1.2790) ng/mL
Plasma concentration, mean (standard deviation) ([1]; 8 h, D −3 midazolam only): 1.024 (0.9525) ng/mL
Plasma concentration, mean (standard deviation) ([1]; 10 h, D1 1 dose of lenvatinib and midazolam): 0.852 (0.7166) ng/mL
Plasma concentration, mean (standard deviation) ([1]; 10 h, D14 multiple doses of lenvatinib and 1 dose of midazolam): 1.055 (1.0511) ng/mL
Plasma concentration, mean (standard deviation) ([1]; 10 h, D −3 midazolam only): 0.767 (0.6376) ng/mL
Plasma concentration, mean (standard deviation) ([1]; 24 h, D1 1 dose of lenvatinib and midazolam): 0.186 (0.1472) ng/mL
Plasma concentration, mean (standard deviation) ([1]; 24 h, D14 multiple doses of lenvatinib and 1 dose of midazolam): 0.282 (0.1998) ng/mL
Plasma concentration, mean (standard deviation) ([1]; 24 h, D −3 midazolam only): 0.158 (0.1110) ng/mL
AUC0–24 geometric mean, lenvatinib + midazolam (test) ([1]; D1, comparison D1 vs D −3): 37.91 ng·h/mL
Cmax geometric mean, lenvatinib + midazolam (test) ([1]; D1, comparison D1 vs D −3): 9.54 ng/mL
AUC0–24 geometric mean, lenvatinib + midazolam (test) ([1]; D14, comparison D14 vs D −3): 36.93 ng·h/mL
Cmax geometric mean, lenvatinib + midazolam (test) ([1]; D14, comparison D14 vs D −3): 8.24 ng/mL
AUC0–24 geometric mean, midazolam (reference) [1, 4]: 33.84 ng·h/mL
Cmax geometric mean, midazolam (reference) [1, 4]: 9.04 ng/mL
AUC0–24 geometric mean, midazolam (reference) [1, 5]: 30.81 ng·h/mL
Cmax geometric mean, midazolam (reference) [1, 5]: 8.76 ng/mL
AUC0–24 ([1]; Day 1, midazolam with single dose of lenvatinib 24 mg, mean (SD), n = 28): 48.6 (47.8) ng × h/mL
Cmax [1, 6]: 12.7 (11.6) ng/mL
t1/2 [1, 6]: 5.48 (2.26) h
tmax ([1]; Day 1, with single dose of lenvatinib): 0.75 (0.25, 2.00) h
AUC0–24 ([1]; Day 14, midazolam with lenvatinib at steady state, mean (SD), n = 19): 41.3 (34.3) ng × h/mL
Cmax [1, 7]: 10.7 (11.6) ng/mL
t1/2 [1, 7]: 5.53 (1.99) h
tmax ([1]; Day 14, with lenvatinib at steady state): 0.77 (0.25, 1.50) h
AUC0–24 ([1]; Day −3, midazolam 4 mg oral alone, mean (SD), n = 29): 38.5 (26.5) ng × h/mL
Cmax [1, 8]: 11.0 (8.64) ng/mL
t1/2 [1, 8]: 5.58 (1.15) h
tmax ([1]; Day −3, midazolam alone): 0.75 (0.25, 2.02) h

Cc1ncc2n1-c1ccc(Cl)cc1C(c1ccccc1F)=NC2 [midazolam]
Change in t1/2 when administered with lenvatinib (CYP3A4): little change; also recorded: no statistically significant change
Difference in median tmax (CYP3A4; D1 vs D −3): 0.00 h
Difference in median tmax (CYP3A4; D14 vs D −3): 0.00 h
Change in CL/F and Vz/F over time (CYP3A4; D −3, D1, D14): no statistically significant change
Cmax geometric mean, lenvatinib + midazolam (test) ([1]; D14, comparison D14 vs D −3): 24.76 ng/mL
Cmax geometric mean, midazolam (reference) [1, 4]: 24.73 ng/mL
AUC0–24 geometric mean, midazolam (reference) [1, 5]: 88.30 ng·h/mL
Cmax geometric mean, midazolam (reference) [1, 5]: 24.10 ng/mL
Cmax [1, 8]: 26.5 (10.7) ng/mL
concentration at 1 h ([1]; human, plasma, oral, 4 mg, Plasma concentration, mean (standard deviation), 1 h, D −3 midazolam only): 19 ng/mL
concentration at 2 h ([1]; human, plasma, oral, 4 mg, Plasma concentration, mean (standard deviation), 2 h, D −3 midazolam only): 13.1 ng/mL
concentration at 3 h ([1]; human, plasma, oral, 4 mg, Plasma concentration, mean (standard deviation), 3 h, D −3 midazolam only): 8.78 ng/mL
concentration at 4 h ([1]; human, plasma, oral, 4 mg, Plasma concentration, mean (standard deviation), 4 h, D −3 midazolam only): 6.12 ng/mL
concentration at 6 h ([1]; human, plasma, oral, 4 mg, Plasma concentration, mean (standard deviation), 6 h, D −3 midazolam only): 4.19 ng/mL
concentration at 8 h ([1]; human, plasma, oral, 4 mg, Plasma concentration, mean (standard deviation), 8 h, D −3 midazolam only): 3.24 ng/mL
concentration at 10 h ([1]; human, plasma, oral, 4 mg, Plasma concentration, mean (standard deviation), 10 h, D −3 midazolam only): 2.51 ng/mL
concentration at 24 h ([1]; human, plasma, oral, 4 mg, Plasma concentration, mean (standard deviation), 24 h, D −3 midazolam only): 0.53 ng/mL
Vd/F ([1]; human, plasma, oral, 4 mg, Day −3, midazolam alone, mean (SD)): 382 L
half-life ([1]; human, plasma, oral, 4 mg, t1/2, Day −3, midazolam alone, mean (SD)): 5.87 h
AUC(0-t) ([1]; human, plasma, oral, AUC0–24, Day 14, midazolam with lenvatinib at steady state, mean (SD), n = 19): 117 ng·h/mL
Cmax ([1]; human, plasma, oral, Cmax, Day 1, with single dose of lenvatinib, mean (SD)): 24.8 ng/mL
Cmax ([1]; human, plasma, oral, Cmax, Day 14, with lenvatinib at steady state, mean (SD)): 28.3 ng/mL
concentration at 0.5 h ([1]; human, plasma, oral, Plasma concentration, mean (standard deviation), 0.5 h, D14 multiple doses of lenvatinib and 1 dose of midazolam): 23.7 ng/mL
concentration at 1 h ([1]; human, plasma, oral, Plasma concentration, mean (standard deviation), 1 h, D1 1 dose of lenvatinib and midazolam): 16.5 ng/mL
concentration at 1 h ([1]; human, plasma, oral, Plasma concentration, mean (standard deviation), 1 h, D14 multiple doses of lenvatinib and 1 dose of midazolam): 23.1 ng/mL
concentration at 1.5 h ([1]; human, plasma, oral, Plasma concentration, mean (standard deviation), 1.5 h, D14 multiple doses of lenvatinib and 1 dose of midazolam): 17.8 ng/mL
concentration at 2 h ([1]; human, plasma, oral, Plasma concentration, mean (standard deviation), 2 h, D1 1 dose of lenvatinib and midazolam): 11.3 ng/mL
concentration at 2 h ([1]; human, plasma, oral, Plasma concentration, mean (standard deviation), 2 h, D14 multiple doses of lenvatinib and 1 dose of midazolam): 13.9 ng/mL
concentration at 3 h ([1]; human, plasma, oral, Plasma concentration, mean (standard deviation), 3 h, D1 1 dose of lenvatinib and midazolam): 7.89 ng/mL
concentration at 3 h ([1]; human, plasma, oral, Plasma concentration, mean (standard deviation), 3 h, D14 multiple doses of lenvatinib and 1 dose of midazolam): 9.93 ng/mL
concentration at 4 h ([1]; human, plasma, oral, Plasma concentration, mean (standard deviation), 4 h, D1 1 dose of lenvatinib and midazolam): 5.67 ng/mL
concentration at 4 h ([1]; human, plasma, oral, Plasma concentration, mean (standard deviation), 4 h, D14 multiple doses of lenvatinib and 1 dose of midazolam): 7.58 ng/mL
concentration at 6 h ([1]; human, plasma, oral, Plasma concentration, mean (standard deviation), 6 h, D1 1 dose of lenvatinib and midazolam): 4.08 ng/mL
concentration at 6 h ([1]; human, plasma, oral, Plasma concentration, mean (standard deviation), 6 h, D14 multiple doses of lenvatinib and 1 dose of midazolam): 5.21 ng/mL
concentration at 8 h ([1]; human, plasma, oral, Plasma concentration, mean (standard deviation), 8 h, D1 1 dose of lenvatinib and midazolam): 2.96 ng/mL
concentration at 8 h ([1]; human, plasma, oral, Plasma concentration, mean (standard deviation), 8 h, D14 multiple doses of lenvatinib and 1 dose of midazolam): 4.05 ng/mL
concentration at 10 h ([1]; human, plasma, oral, Plasma concentration, mean (standard deviation), 10 h, D1 1 dose of lenvatinib and midazolam): 2.39 ng/mL
concentration at 10 h ([1]; human, plasma, oral, Plasma concentration, mean (standard deviation), 10 h, D14 multiple doses of lenvatinib and 1 dose of midazolam): 3.47 ng/mL
concentration at 24 h ([1]; human, plasma, oral, Plasma concentration, mean (standard deviation), 24 h, D1 1 dose of lenvatinib and midazolam): 0.628 ng/mL
concentration at 24 h ([1]; human, plasma, oral, Plasma concentration, mean (standard deviation), 24 h, D14 multiple doses of lenvatinib and 1 dose of midazolam): 1.25 ng/mL
Vd/F ([1]; human, plasma, oral, Day 1, with single dose of lenvatinib, mean (SD)): 481 L
Vd/F ([1]; human, plasma, oral, Day 14, with lenvatinib at steady state, mean (SD)): 544 L
half-life ([1]; human, plasma, oral, t1/2, Day 1, with single dose of lenvatinib, mean (SD)): 6.48 h
half-life ([1]; human, plasma, oral, t1/2, Day 14, with lenvatinib at steady state, mean (SD)): 6.76 h
tmax ([1]; human, plasma, oral, tmax, Day 1, with single dose of lenvatinib): 0.63 h

Reference: paper PMC7211203 (European Journal of Drug Metabolism and Pharmacokinetics, 2020)
